{"source": "paper PMC6212778", "about": "“Site-specific amino acid substitution in dodecameric peptides determines the stability and unfolding of c-MYC quadruplex promoting apoptosis in cancer cells” (Nucleic Acids Research, 2018)", "key": {"[1]": {"system": "KR12C (synthetic, derived from human LL37)", "assay": "ITC", "conditions": "ITC: 10 mM potassium phosphate pH 7.0, 100 mM KCl, 25 C, 20 uM peptide in cell, 500 uM G4 DNA in syringe, one-site fit. NMR: same buffer, 10% D2O, NOESY at …; for binding signal (fold lower affinity than c-MYC G4): 100 mM KCl, fold order read as BCL-2 then telomere"}, "[2]": {"system": "KR12C (synthetic, derived from human LL37)", "assay": "CD melting", "conditions": "ITC: 10 mM potassium phosphate pH 7.0, 100 mM KCl, 25 C; 20 uM peptide in cell, 500 uM G4 DNA in syringe; one-site fit. NMR: same buffer, 10% D2O, NOESY at …"}, "[3]": {"system": "BCL-2 promoter (BCL-2-GQ) in MCF-7 cells", "assay": "Dual-luciferase assay, BCL-2 promoter with BCL-2-GQ", "format": "cell-based, human", "conditions": "MCF-7, 24 h, peptide 0–60 μM", "protocol": "(§1) MCF-7 cells are sub-cultured into 24-well microtiter plates at a cell density of 1 × 10^5 cells/well. Reporter constructs (c-MYC, BCL-2, KRAS and VEGF-A) (500 ng) with and/or without the G-quadruplex scaffolds triggering the expression of Renilla luciferase are co-transfected with 50 ng of pGL3-control vectors (Promega) (used as internal control), encoding firefly luciferase into MCF-7 cells using Lipofectamine® 3000 transfection reagent (Thermo-Fisher Scientific) following manufacturer's recommendations (Supplementary information Section 1). Twenty four hours post-transfection, cells are treated with peptides (FK13, KR12A, KR12B, KR12C, KR12D and KR12E) at an increasing concentration gradient.\n(§2) Dual-luciferase assays are performed to examine the intracellular selectivity of peptides for c-MYC quadruplex isomers (Pu27, Myc22 and Pu19) over other oncogenic quadruplexes (BCL-2, VEGF-A and KRAS) of different topologies. The role of peptide-quadruplex complex in oncogene promoter activation is investigated in contrast to the GQ-null promoter constructs into MCF-7 cells ([67]). After 24 h of peptide treatment, cells are washed and lysed into 100 μl 1× Passive lysis buffer (PLB) for 15 min at room temperature. Renilla and firefly Luciferase activities in 25 μl lysate are quantified by Dual-Luciferase® reporter assay system (Promega) as per manufacturer's recommendations. Renilla luciferase enzyme activity is normalized to that of the firefly luciferase activity and luminescence of the peptide-treated samples are normalized to the untreated ones, which yield the fold induction values for Renilla activities by different quadruplex structures in presence and absence of synthetic peptides. Luminescence of each sample is detected in GloMax® 20/20 Single-Tube Luminometer (Promega) in triplicates and averaged from three independent experiments."}, "[4]": {"system": "VEGF-A promoter (VEGF-A-GQ) in MCF-7 cells", "assay": "Dual-luciferase assay, VEGF-A promoter with VEGF-A-GQ", "format": "cell-based, human", "conditions": "MCF-7, 24 h, peptide 0–60 μM", "protocol": "as §1, §2"}, "[5]": {"system": "native c-MYC quadruplex (Pu27)", "assay": "ITC of peptides with native c-MYC quadruplex Pu27 in potassium phosphate buffer", "format": "binding, human", "conditions": "25°C, 20 μM peptide in cell, 500 μM Pu27 in syringe, 10 mM potassium phosphate, 0.1 M KCl, pH 7.0, one-site model", "protocol": "The putative wild-type and truncated G-quadruplex forming sequences (Table 2 and Supplementary Table S1), located at the upstream of c-MYC promoter are reconstituted in 10 mM Potassium Phosphate buffer (pH 7.0) having 100 mM potassium chloride (KCl). The sequences are allowed to evolve G-quadruplex structure in solution by annealing at 95°C followed by gradual cooling. (Supplementary information Section 1).\nThermodynamic attributes of the interaction profiles between peptides and putative quadruplex sequences are analysed by ITC using iTC200 Microcalorimeter at 25°C. Synthetic peptides (FK13, KR12A, KR12B, KR12C, KR12D and KR12E) are diluted to 20 μM in 10 mM Potassium phosphate buffer (10 mM K2HPO4 + 10 mM KH2PO4) containing 0.1 M KCl (pH 7.0). Syringe is filled with 500 μM quadruplex sequences present in the upstream promoter regions of c-MYC (Pu27, Pu19, and Myc22), BCL-2 (Pu30), VEGF-A (Pu22), KRAS (Pu32) oncogenes, and telomere (Tel26) dissolved into the same buffer. We also carried out the experiment for KR12C and Pu27 using MCF-7 nuclear extract as the solvent to mimic the cellular microenvironment and impart macromolecular crowding during binding events. Same concentration of oligonucleotides is injected into the identical buffer or in nuclear extract without peptides to normalize the heat of dilution of peptide-quadruplex association to that of the control before curve-fitting. Oligonucleotides are injected 20 times at an interval of 150 s into the calorimeter cell having the peptides to achieve binding saturation. The heat of reaction per injection (μcal/s) is determined by integration of the peak areas using in-built Origin 7.0 software that provides the best-fit values of enthalpy (ΔH) and entropy (ΔS) of binding, the binding stoichiometry (n), and dissociation constant (Kd) (Supplementary Tables S5(a), S5(b) and S5(c)). Data points are further simulated with ‘one-site’ binding modes (Supplementary information Section 1)."}, "[6]": {"system": "c-MYC promoter (Pu27-GQ) in MCF-7 cells", "assay": "Dual-luciferase assay, c-MYC promoter with Pu27-GQ", "format": "cell-based, human", "conditions": "MCF-7, 24 h, peptide 0–60 μM", "protocol": "as §1, §2"}, "[7]": {"system": "c-MYC promoter with Myc22 isomer in MCF-7 cells", "assay": "Dual-luciferase assay, c-MYC promoter under control of Myc22", "format": "cell-based, human", "conditions": "MCF-7, 24 h peptide treatment", "protocol": "as §1, §2"}, "c-MYC quadruplex Pu27": {"system": "c-MYC quadruplex Pu27", "assay": "CD melting of free and peptide-bound Pu27", "format": "binding, human", "protocol": "To understand the role of peptides (FK13, KR12A, KR12B, KR12C, KR12D and KR12E) in stabilizing native and truncated isomers of c-MYC G-quadruplex, we have performed temperature-driven CD melting experiments for free and peptide-bound complexes in JASCO-J815 CD spectrometer. We have gradually titrated the peptides into 10 μM of putative quadruplexes and acquired the spectra after 5 min of peptide addition to allow complex formation and equilibration. Samples are heated from 20 to 95°C having the temperature gradient and the delay time of 2.5°C/min and 150 s respectively. Since the quadruplexes unfold at higher temperatures and revert back to their initial conformations upon renaturation, we have assumed a ‘two-state transition’ model (folded and unfolded) to analyze the melting curves and estimated the melting temperatures (Tm) by fitting the data points into sigmoidal curves (Supplementary information Section 1)."}, "[8]": {"system": "KRAS promoter (KRAS-GQ) in MCF-7 cells", "assay": "Dual-luciferase assay, KRAS promoter with KRAS-GQ", "format": "cell-based, human", "conditions": "MCF-7, 24 h", "protocol": "as §1, §2"}, "[9]": {"system": "c-MYC promoter with Pu19 isomer in MCF-7 cells", "assay": "Dual-luciferase assay, c-MYC promoter under control of Pu19", "format": "cell-based, human", "conditions": "MCF-7, 24 h peptide treatment", "protocol": "as §1, §2"}, "[10]": {"system": "KR12E (synthetic, derived from human LL37)", "assay": "ITC", "conditions": "ITC: 10 mM potassium phosphate pH 7.0, 100 mM KCl, 25 C; 20 uM peptide in cell, 500 uM G4 DNA in syringe; one-site fit. NMR: same buffer, 10% D2O, NOESY at …"}, "[11]": {"system": "KR12A (synthetic, derived from human LL37)", "assay": "ITC", "conditions": "ITC: 10 mM potassium phosphate pH 7.0, 100 mM KCl, 25 C; 20 uM peptide in cell, 500 uM G4 DNA in syringe; one-site fit. NMR: same buffer, 10% D2O, NOESY at …"}, "[12]": {"system": "KR12B (synthetic, derived from human LL37)", "assay": "ITC", "conditions": "ITC: 10 mM potassium phosphate pH 7.0, 100 mM KCl, 25 C; 20 uM peptide in cell, 500 uM G4 DNA in syringe; one-site fit. NMR: same buffer, 10% D2O, NOESY at …"}, "[13]": {"system": "KR12D (synthetic, derived from human LL37)", "assay": "ITC", "conditions": "ITC: 10 mM potassium phosphate pH 7.0, 100 mM KCl, 25 C; 20 uM peptide in cell, 500 uM G4 DNA in syringe; one-site fit. NMR: same buffer, 10% D2O, NOESY at …"}, "[14]": {"system": "KR12E (synthetic, derived from human LL37)", "assay": "CD melting", "conditions": "destabilizes; ITC: 10 mM potassium phosphate pH 7.0, 100 mM KCl, 25 C; 20 uM peptide in cell, 500 uM G4 DNA in syringe; one-site fit. NMR: same buffer, 10% D2O, NOESY at …"}, "[15]": {"system": "KR12A (synthetic, derived from human LL37)", "assay": "CD melting", "conditions": "destabilizes; ITC: 10 mM potassium phosphate pH 7.0, 100 mM KCl, 25 C; 20 uM peptide in cell, 500 uM G4 DNA in syringe; one-site fit. NMR: same buffer, 10% D2O, NOESY at …"}, "[16]": {"molecular_target": "T1, FK13 (LL37-derived peptide) (Homo sapiens (synthetic, derived from …, UniProt P49913 150-162))", "T1 chain": "FKRIVQRIKDFLR", "assay": "ITC; 100 mM KCl; ITC: 10 mM potassium phosphate pH 7.0, 100 mM KCl, 25 C; 20 uM peptide in cell, 500 uM G4 DNA in syringe; one-site fit. NMR: same buffer, 10% D2O, NOESY at 15 C", "conditions": "G4, unimolecular"}}}
{"molecule": "BCL-2 Pu30 quadruplex", "values": [{"measurement": "binding signal (fold lower affinity than c-MYC G4)", "setting": "[1]", "value": 3}]}
{"molecule": "GGAGGGTGGGGAGGGTGGGGAA [Myc22]", "values": [{"measurement": "binding signal (delta Tm, deg C)", "setting": "[2]", "value": 6.91}]}
{"molecule": "N – KRIVKRIKKWLL – C [KR12E, dodecameric mutant peptide derived from FK13 / LL37]", "values": [{"measurement": "BCL-2 promoter activity", "setting": "[3]", "value": "no significant effects"}, {"measurement": "VEGF-A promoter activity", "setting": "[4]", "value": "no significant effects"}, {"measurement": "K A", "setting": "[5]", "value": 18800, "unit": "M⁻¹"}, {"measurement": "Kd", "setting": "[5]", "value": 53.2, "unit": "µM"}, {"measurement": "ΔG (binding energy)", "setting": "[5]", "value": -5.89, "unit": "kcal/mol"}, {"measurement": "ΔH (binding enthalpy)", "setting": "[5]", "value": -168, "unit": "kcal/mol"}, {"measurement": "ΔS (entropy)", "setting": "[5]", "value": "−544", "unit": "cal/mol/deg"}, {"measurement": "c-MYC promoter activity", "setting": "[6]", "value": "no significant effects"}, {"measurement": "c-MYC promoter activation under control of Myc22", "setting": "[7]", "value": "no regulatory effect"}, {"measurement": "decrease of the Tm of Pu27 upon peptide binding", "setting": "c-MYC quadruplex Pu27; 10 μM quadruplex, two-state model", "value": "~30", "unit": "°C"}, {"measurement": "KRAS promoter activity", "setting": "[8]; peptide 0–60 μM", "value": "no significant effects"}, {"measurement": "c-MYC promoter activation under control of Pu19", "setting": "[9]", "value": "no regulatory effect"}]}
{"molecule": "N – KRIVKVIKKWLR – C [KR12D, dodecameric mutant peptide derived from FK13 / LL37]", "values": [{"measurement": "BCL-2 promoter activity", "setting": "[3]", "value": "no significant effects"}, {"measurement": "VEGF-A promoter activity", "setting": "[4]", "value": "no significant effects"}, {"measurement": "K A", "setting": "[5]", "value": 20400, "unit": "M⁻¹"}, {"measurement": "Kd", "setting": "[5]", "value": 49, "unit": "µM"}, {"measurement": "ΔG (binding energy)", "setting": "[5]", "value": -5.774, "unit": "kcal/mol"}, {"measurement": "ΔH (binding enthalpy)", "setting": "[5]", "value": -136, "unit": "kcal/mol"}, {"measurement": "ΔS (entropy)", "setting": "[5]", "value": "−437", "unit": "cal/mol/deg"}, {"measurement": "c-MYC promoter activity", "setting": "[6]", "value": "no significant effects"}, {"measurement": "c-MYC promoter activation under control of Myc22", "setting": "[7]", "value": "no regulatory effect"}, {"measurement": "effect on thermal stability of Pu27", "setting": "c-MYC quadruplex Pu27", "value": "did not significantly induce thermal stability"}, {"measurement": "KRAS promoter activity, fold inhibition", "setting": "[8]; at higher concentration", "value": "~1.6", "unit": "fold"}, {"measurement": "c-MYC promoter activation under control of Pu19", "setting": "[9]", "value": "no regulatory effect"}]}
{"molecule": "TGGGGAGGGTGGGGAGGGT [Pu19]", "values": [{"measurement": "binding signal (delta Tm, deg C)", "setting": "[2]", "value": 10.9}]}
{"molecule": "TGGGGAGGGTGGGGAGGGTGGGGAAGG [Pu27 c-MYC quadruplex]", "values": [{"measurement": "Kd", "setting": "[10]", "value": 53.2, "unit": "µM"}, {"measurement": "Kd", "setting": "[11]", "value": 61.7, "unit": "µM"}, {"measurement": "Kd", "setting": "[12]", "value": 37.3, "unit": "µM"}, {"measurement": "Kd", "setting": "[13]", "value": 49, "unit": "µM"}, {"measurement": "Kd", "setting": "[1]", "value": 8.06, "unit": "µM"}, {"measurement": "Kd", "setting": "[1]; MCF-7 nuclear extract as solvent (crowding)", "value": 0.901, "unit": "µM"}, {"measurement": "binding signal (delta Tm, deg C)", "setting": "[14]", "value": -30}, {"measurement": "binding signal (delta Tm, deg C)", "setting": "[15]", "value": -30}, {"measurement": "binding signal (delta Tm, deg C)", "setting": "[2]", "value": 9}]}
{"molecule": "Tel26 telomeric quadruplex", "values": [{"measurement": "binding signal (fold lower affinity than c-MYC G4)", "setting": "[1]", "value": 4}]}
{"molecule": "TGGGGAGGGTGGGGAGGGTGGGGAAGG (structured_DNA)", "note": "[Pu27 c-MYC quadruplex]", "values": [{"measurement": "Kd", "setting": "[16]", "value": 34.6, "unit": "µM"}]}
